Values belong to the compound of their own block, whether it stands above or below them.
How the values were obtained:
[1] = target: PAS domain-containing serine/threonine-protein kinase (Homo sapiens) (UniProt Q96RG2); experiment: Selectivity interaction (Kinase panel (Z-LYTE Assay)) EUB0001632a PASK; conditions: at 10 µM
[2] = target: T1, NUAK family SNF1-like kinase 1 (Homo sapiens) (UniProt O60285); experiment: Selectivity interaction (KinomeScan (DiscoverX)) EUB0000607a NUAK1; conditions: at 10 µM
T1 sequence (whole entry): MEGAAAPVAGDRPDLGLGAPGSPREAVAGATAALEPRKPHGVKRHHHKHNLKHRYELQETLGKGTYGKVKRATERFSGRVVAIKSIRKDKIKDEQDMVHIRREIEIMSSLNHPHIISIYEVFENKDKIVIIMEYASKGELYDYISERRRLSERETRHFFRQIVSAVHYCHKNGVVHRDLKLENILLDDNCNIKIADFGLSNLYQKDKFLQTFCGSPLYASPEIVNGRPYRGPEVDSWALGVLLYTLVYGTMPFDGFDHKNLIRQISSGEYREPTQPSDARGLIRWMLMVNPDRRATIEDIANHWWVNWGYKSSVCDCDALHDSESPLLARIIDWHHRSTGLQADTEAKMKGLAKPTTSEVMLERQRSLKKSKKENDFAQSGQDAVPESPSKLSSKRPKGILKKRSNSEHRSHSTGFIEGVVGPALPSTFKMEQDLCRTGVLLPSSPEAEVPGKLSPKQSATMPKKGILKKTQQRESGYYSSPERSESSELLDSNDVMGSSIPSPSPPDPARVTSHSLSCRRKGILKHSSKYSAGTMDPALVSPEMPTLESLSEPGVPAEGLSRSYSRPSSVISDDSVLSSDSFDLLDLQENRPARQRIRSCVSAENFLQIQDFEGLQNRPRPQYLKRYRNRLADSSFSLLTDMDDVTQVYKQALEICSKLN

[3] = target: BMP-2-inducible protein kinase (Homo sapiens) (UniProt Q9NSY1); experiment: Selectivity interaction (KinomeScan (DiscoverX)) EUB0000607a BMP2K; conditions: at 10 µM
BMP-2-inducible protein kinase (Homo sapiens), sequence (Q9NSY1 whole entry, looked up): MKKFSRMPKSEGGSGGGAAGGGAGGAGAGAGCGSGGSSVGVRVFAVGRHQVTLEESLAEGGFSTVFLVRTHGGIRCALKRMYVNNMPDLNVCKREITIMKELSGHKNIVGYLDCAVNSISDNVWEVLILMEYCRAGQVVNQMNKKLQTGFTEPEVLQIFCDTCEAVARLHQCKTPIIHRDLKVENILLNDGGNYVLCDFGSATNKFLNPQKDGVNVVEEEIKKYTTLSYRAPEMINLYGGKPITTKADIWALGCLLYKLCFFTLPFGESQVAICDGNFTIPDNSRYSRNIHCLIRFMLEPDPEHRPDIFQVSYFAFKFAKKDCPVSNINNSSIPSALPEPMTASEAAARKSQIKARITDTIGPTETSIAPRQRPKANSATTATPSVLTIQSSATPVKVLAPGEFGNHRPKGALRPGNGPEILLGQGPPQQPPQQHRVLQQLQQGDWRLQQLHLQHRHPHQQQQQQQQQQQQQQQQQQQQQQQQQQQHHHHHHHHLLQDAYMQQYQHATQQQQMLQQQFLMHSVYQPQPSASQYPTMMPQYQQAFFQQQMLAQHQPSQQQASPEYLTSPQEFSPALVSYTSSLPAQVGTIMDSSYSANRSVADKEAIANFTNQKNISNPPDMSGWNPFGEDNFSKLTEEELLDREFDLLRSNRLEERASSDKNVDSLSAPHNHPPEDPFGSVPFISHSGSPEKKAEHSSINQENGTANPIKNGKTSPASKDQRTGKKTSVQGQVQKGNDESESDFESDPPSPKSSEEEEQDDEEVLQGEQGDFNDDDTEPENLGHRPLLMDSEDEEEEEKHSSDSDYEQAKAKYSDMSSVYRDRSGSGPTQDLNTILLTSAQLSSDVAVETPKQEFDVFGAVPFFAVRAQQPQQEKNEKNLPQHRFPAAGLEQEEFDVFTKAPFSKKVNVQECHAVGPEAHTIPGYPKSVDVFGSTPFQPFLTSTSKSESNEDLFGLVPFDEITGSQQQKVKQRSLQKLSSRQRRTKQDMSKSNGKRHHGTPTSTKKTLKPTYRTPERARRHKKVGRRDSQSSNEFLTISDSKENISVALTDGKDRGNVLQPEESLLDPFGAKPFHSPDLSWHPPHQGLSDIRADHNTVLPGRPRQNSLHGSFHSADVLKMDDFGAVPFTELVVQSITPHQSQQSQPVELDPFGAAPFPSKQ

[4] = target: Calcium/calmodulin-dependent protein kinase type II subunit gamma (Homo sapiens) (UniProt Q13555); experiment: Selectivity interaction (ProQinase) EUB0000171b CAMK2G
Calcium/calmodulin-dependent protein kinase type II subunit gamma (Homo sapiens), sequence (Q13555 whole entry): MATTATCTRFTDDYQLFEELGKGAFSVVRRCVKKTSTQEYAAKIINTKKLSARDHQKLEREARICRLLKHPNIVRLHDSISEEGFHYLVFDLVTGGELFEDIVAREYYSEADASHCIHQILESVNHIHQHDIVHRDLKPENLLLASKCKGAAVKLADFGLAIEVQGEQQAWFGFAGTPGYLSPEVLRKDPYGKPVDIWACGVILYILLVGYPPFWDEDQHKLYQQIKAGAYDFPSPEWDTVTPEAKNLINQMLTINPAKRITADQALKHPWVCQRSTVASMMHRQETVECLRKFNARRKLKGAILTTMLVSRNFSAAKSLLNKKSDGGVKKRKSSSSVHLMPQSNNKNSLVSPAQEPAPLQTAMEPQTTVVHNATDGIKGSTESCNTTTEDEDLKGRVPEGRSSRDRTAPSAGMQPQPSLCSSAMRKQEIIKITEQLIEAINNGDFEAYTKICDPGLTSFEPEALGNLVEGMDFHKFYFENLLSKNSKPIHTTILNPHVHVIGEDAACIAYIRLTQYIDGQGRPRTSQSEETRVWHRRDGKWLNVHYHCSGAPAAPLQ

[5] = target: Serine/threonine-protein kinase 25 (Homo sapiens) (UniProt O00506); experiment: Selectivity interaction (ProQinase) EUB0000171b STK25
Serine/threonine-protein kinase 25 (Homo sapiens), sequence (O00506 whole entry, looked up): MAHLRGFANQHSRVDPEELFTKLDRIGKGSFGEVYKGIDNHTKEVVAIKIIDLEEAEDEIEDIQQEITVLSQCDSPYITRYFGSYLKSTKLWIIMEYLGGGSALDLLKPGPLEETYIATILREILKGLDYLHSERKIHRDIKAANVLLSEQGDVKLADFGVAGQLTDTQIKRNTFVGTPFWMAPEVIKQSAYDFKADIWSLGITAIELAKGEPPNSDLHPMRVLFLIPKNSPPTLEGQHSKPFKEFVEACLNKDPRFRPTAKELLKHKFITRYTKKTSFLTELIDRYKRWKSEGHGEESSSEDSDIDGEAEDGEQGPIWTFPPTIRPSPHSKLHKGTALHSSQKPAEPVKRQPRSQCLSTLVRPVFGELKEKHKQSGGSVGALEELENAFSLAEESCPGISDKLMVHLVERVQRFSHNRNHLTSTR

[6] = target: T2, Muscarinic acetylcholine receptor M1 (Homo sapiens) (UniProt P11229); experiment: Selectivity interaction (Panel of non-epigenetic targets (kinases, GPCRs, ion channels, and transporters, Eurofins) ) EUB0000271b CHRM1; conditions: at 1 µM
T2 sequence (whole entry): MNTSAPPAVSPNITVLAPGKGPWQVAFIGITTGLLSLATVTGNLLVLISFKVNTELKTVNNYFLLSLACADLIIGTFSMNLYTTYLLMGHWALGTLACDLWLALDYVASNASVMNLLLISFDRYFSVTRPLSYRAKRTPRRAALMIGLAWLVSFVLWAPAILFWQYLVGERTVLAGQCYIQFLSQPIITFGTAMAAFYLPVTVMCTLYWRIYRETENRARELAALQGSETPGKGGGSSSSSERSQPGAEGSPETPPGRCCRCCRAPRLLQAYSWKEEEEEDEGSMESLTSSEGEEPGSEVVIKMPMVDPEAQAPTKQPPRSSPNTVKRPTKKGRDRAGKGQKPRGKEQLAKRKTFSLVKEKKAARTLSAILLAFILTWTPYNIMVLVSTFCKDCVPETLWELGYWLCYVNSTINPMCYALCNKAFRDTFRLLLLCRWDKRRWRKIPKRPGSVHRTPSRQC

[7] = target: Serine/threonine-protein kinase/endoribonuclease IRE1 (Homo sapiens) (UniProt O75460); experiment: Selectivity interaction (KinomeScan (DiscoverX)) EUB0000595a ERN1; conditions: at 10 µM
[8] = target: Mitogen-activated protein kinase 3 (Homo sapiens, UniProt P27361); experiment: Selectivity interaction (KinomeScan (DiscoverX)) EUB0000595a MAPK3; conditions: at 10 µM
Mitogen-activated protein kinase 3, sequence (P27361 whole entry): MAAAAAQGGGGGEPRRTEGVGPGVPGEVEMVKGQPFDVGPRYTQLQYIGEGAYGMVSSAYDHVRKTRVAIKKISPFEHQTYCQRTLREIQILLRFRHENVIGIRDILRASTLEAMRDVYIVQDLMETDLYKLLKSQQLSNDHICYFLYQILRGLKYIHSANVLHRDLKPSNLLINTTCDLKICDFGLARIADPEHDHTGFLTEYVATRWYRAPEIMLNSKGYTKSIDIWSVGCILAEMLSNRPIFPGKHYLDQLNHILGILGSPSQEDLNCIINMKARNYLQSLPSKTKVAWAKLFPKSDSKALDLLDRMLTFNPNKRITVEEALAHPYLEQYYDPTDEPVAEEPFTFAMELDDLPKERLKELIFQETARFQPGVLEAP

[9] = target: TRAF2 and NCK-interacting protein kinase (Homo sapiens) (UniProt Q9UKE5); experiment: Selectivity interaction (KinomeScan (DiscoverX)) EUB0001049a TNIK; conditions: at 1 µM
[10] = target: Macrophage colony-stimulating factor 1 receptor (Homo sapiens) (UniProt P07333); experiment: Selectivity interaction (KinomeScan (DiscoverX)) EUB0000045b CSF1R
Macrophage colony-stimulating factor 1 receptor (Homo sapiens), sequence (P07333 whole entry): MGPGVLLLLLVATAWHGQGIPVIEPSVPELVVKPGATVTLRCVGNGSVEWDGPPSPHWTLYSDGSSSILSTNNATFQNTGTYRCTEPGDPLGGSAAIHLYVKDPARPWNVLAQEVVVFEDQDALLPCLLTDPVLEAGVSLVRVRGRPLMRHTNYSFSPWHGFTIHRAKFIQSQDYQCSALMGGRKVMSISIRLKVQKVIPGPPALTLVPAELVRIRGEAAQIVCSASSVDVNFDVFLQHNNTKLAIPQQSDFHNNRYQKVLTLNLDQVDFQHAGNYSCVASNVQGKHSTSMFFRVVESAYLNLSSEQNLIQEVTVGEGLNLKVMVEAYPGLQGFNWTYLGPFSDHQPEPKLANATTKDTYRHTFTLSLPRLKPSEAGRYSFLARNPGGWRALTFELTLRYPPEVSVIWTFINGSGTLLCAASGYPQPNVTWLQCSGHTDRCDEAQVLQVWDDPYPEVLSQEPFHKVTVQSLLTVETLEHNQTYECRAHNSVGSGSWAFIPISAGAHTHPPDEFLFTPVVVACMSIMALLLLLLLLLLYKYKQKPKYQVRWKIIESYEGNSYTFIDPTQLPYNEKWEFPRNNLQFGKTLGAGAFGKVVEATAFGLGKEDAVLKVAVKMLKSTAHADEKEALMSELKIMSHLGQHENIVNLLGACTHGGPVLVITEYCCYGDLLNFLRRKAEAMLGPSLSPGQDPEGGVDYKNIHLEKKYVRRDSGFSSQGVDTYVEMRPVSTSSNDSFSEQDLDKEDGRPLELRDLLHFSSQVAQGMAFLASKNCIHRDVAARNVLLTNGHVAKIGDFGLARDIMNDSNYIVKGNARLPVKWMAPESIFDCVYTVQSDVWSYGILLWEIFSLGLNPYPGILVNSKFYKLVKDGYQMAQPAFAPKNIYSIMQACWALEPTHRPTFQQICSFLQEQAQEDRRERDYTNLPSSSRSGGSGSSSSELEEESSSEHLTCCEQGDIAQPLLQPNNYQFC

[11] = target: Dual specificity protein kinase CLK3 (Homo sapiens, UniProt P49761); experiment: Selectivity interaction (KinomeScan (DiscoverX)) EUB0001079a CLK3; conditions: at 1 µM
[12] = target: T3, Serine/threonine-protein kinase 3 (Homo sapiens) (UniProt Q13188); experiment: Selectivity interaction (KinomeScan (DiscoverX)) EUB0000618a STK3; conditions: at 10 µM
T3 sequence (whole entry): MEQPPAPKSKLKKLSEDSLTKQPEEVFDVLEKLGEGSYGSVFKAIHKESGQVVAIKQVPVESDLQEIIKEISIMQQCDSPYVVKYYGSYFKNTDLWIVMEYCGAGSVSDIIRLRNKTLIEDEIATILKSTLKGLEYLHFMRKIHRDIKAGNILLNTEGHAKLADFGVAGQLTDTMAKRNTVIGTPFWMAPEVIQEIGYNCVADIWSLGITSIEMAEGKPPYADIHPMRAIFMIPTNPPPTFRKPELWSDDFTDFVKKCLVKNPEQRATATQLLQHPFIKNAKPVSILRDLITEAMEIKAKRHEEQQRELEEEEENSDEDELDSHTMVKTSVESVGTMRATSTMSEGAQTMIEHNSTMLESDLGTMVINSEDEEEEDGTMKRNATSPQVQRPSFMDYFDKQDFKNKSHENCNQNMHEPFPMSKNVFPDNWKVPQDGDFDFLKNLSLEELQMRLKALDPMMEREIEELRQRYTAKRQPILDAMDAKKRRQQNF

[13] = target: Mitogen-activated protein kinase kinase kinase 11 (Homo sapiens) (UniProt Q16584); experiment: Selectivity interaction (ActivX KiNativ screen (ex vivo kinase selectivity in human PBMCs)) EUB0001619a MAP3K11; format: cell-based; conditions: PBMC, at 1 µM
[14] = target: T4, Aurora kinase C (Homo sapiens) (UniProt Q9UQB9); experiment: Selectivity interaction (KinomeScan (DiscoverX)) EUB0001619a AURKC; conditions: at 1 µM
T4 sequence (whole entry): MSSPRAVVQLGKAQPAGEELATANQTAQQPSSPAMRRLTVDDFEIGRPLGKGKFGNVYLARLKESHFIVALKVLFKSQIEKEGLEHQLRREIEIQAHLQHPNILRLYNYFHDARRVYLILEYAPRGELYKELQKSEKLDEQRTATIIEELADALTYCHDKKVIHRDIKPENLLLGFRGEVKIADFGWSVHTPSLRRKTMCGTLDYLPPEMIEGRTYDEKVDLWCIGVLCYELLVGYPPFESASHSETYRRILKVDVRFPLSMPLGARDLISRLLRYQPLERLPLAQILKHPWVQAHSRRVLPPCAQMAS

PAS domain-containing serine/threonine-protein kinase (Homo sapiens), sequence (Q96RG2 whole entry, the tested form may be a part): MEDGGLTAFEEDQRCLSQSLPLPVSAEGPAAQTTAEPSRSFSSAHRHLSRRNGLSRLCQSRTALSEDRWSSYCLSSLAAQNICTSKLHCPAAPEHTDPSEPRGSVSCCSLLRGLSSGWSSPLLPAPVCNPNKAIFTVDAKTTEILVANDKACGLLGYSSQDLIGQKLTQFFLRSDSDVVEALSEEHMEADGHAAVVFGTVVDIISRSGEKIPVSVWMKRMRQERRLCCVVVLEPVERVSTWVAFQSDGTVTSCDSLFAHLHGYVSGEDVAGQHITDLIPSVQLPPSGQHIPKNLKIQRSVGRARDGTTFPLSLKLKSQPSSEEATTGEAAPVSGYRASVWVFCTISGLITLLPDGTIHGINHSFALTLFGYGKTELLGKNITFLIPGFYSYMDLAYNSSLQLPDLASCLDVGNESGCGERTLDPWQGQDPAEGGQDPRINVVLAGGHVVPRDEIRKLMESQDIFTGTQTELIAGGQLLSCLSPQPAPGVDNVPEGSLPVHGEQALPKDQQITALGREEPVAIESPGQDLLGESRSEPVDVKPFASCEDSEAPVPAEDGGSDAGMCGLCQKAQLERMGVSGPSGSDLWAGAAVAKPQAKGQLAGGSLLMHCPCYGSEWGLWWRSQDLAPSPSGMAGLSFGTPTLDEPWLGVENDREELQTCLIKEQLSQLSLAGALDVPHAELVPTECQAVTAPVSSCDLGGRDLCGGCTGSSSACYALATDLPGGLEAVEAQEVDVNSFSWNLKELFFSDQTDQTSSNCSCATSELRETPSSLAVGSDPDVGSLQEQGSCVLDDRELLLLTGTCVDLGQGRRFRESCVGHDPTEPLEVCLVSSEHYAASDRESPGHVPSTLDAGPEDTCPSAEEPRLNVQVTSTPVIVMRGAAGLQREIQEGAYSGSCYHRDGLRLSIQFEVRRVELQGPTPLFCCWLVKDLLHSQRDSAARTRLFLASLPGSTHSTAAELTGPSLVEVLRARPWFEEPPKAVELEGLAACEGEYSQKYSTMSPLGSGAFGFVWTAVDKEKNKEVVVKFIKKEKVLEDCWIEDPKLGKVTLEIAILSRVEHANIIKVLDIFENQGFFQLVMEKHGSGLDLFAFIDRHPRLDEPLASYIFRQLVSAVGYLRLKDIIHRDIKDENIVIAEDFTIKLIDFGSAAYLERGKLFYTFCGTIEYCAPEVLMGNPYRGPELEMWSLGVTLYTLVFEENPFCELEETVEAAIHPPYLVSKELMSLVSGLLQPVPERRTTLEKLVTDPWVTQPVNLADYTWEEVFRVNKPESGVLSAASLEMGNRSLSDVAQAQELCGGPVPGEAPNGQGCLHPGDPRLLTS

% of control [1]: 2.87%
SMILES: Cn1cc(-n2cnc3c(NCc4nc5cc(Cl)c(Cl)cc5[nH]4)nc(N4CCOCC4)nc32)cn1

SMILES: CNC(=O)Nc1ccc(-c2nc(N3CC4CCC(C3)O4)c3cnn(C4CCC5(CC4)OCCO5)c3n2)cc1
% of control [2]: 82%
% of control [3]: 85%

% of control ([4]; at 1 µM): 81%
% of control ([4]; at 5 µM): 54%
% of control ([5]; at 1 µM): 88%
% of control ([5]; at 5 µM): 95%
SMILES: C=CC(=O)Nc1cccc(C(=O)Nc2ccc(Nc3cc(-c4[nH]c(SC)nc4C)ccn3)cc2)c1

SMILES: Cc1cc(C)cc([C@@H]2c3cc(C)ccc3NC(=O)CN2C(=O)c2ccc(Br)s2)c1
% of inhibition [6]: -2%

SMILES: COCC(=O)NC/C=C/c1ccc2ncnc(Nc3ccc(Oc4ccc(C)nc4)c(C)c3)c2c1 [CP-724714]
% of control [7]: 82%
% of control [8]: 95%

SMILES: COc1cc(Nc2nc(C)cc(-c3cnn4nc(OC)ccc34)n2)cc(C(F)(F)F)c1
% of control [9]: 74%

SMILES: C=CC(=O)Nc1cc(-n2c(=O)ccc3cnc4ccc(-c5ccc(NS(C)(=O)=O)cc5)cc4c32)ccc1C
% of control ([10]; at 1 µM): 94%
% of control ([10]; at 10 µM): 87%

SMILES: Nc1cnc(N2CCc3cc(S(=O)(=O)Nc4c(F)cc(Cl)cc4F)cc(N4CCCC4=O)c32)nc1 [TP-020n]
% of control [11]: 74%

SMILES: O[C@H]1CC[C@H](Nc2ncc3nc(Nc4c(F)cc(F)cc4F)n([C@H]4CCOC4)c3n2)CC1
% of control [12]: 73%

SMILES: N#Cc1cccc(-c2c[nH]c3ncnc(N4CCOCC4)c23)c1
% of inhibition [13]: 20%
% of control [14]: 43%

From ChEMBL document CHEMBL5465560, “Selectivity Literature for EUbOPEN Chemogenomic Library” (2024)
